US12528837B2, “Aryl substituted polymyxin derivatives” (priority 2018, dated 2026)
≈ marks a conversion by molar mass, not a printed value. Read-outs that look alike come from different tables or passages of the source. *1 amine or outer side, *2 acyl side, *3 side chain or, on linkers, in order; H or OH if unused. Where a SMILES comes first, the peptide text is derived from it. Bridges are numbered along the chain shown (N, C = ends). [ ]: non-standard residue; d: D form. The star is where a group is joined. GABA(3S-Bn) = O=C(C[C@@H](CN[*:1])Cc1ccccc1)[*:2]; X14 = NC[C@@H](CC(=O)*)c1cccc(-c2ccsc2)c1; X23 = NC[C@H](CC(=O)*)c1cccc(-c2ccsc2)c1; X25 = NCC[C@@H](C(=O)*)c1cccc(Cl)c1; X10 = Cc1cccc([C@@H](CN)CC(=O)*)c1; Dab = NCC[C@H](N)C(=O)O; Abu = CC[C@H](N)C(=O)O; Dap = NC[C@H](N)C(=O)O

How the values were obtained:
HK-2 cells = assay: In vitro renal cell toxicity assay (HK-2); format: cell-based
Description: The in vitro renal cell toxicity assay was performed according to the following protocol. […] Cells were seeded at 7,500 cells per well in 96-well plates and allowed to adhere overnight. […] Water and DMSO levels were kept constant at 5% and 0.5% respectively. The test compounds were incubated with cells for 24 h at 37° C. 5% CO2 in a humidified atmosphere. […] Media only background values were subtracted before the data was analysed using GraphPad Prism. Individual values were normalised to the vehicle control wells for each compound. Compound concentration values were plotted as log values to enable a dose-response curve to be fitted. The bottom of the curve was constrained to zero and IC50 values were determined. IC50 values are expressed relative to that for PMB in the same experiment. Where multiple determinations have been made, median values are presented.

[1] = Kidney drug level after subcutaneous dose in mouse; format: in vivo; settings: mouse, in vivo
Description: Four hours after dosing the animals were euthanised and kidneys removed, trimmed of fat and connective tissue, weighed and immediately snap-frozen. After thawing at room temperature, pairs of kidneys from each animal were placed in 2 mL conical tubes containing pre-weighed ceria-stabilised zirconium oxide beads. […] After 10 min. centrifugation at 13,000 rpm and 6° C., 200 μl of the supernatants were transferred into glass inserts and analysed by LC-MS-MS.

E. coli CA58 = format: cell-based
Description: (§1) The inoculum was prepared by making a direct suspension of isolated colonies (selected from an 18-24 hour Mueller-Hinton agar plate) adjusted to the 0.5 McFarland standard. […] The assays were performed in duplicate. […] Several of the compounds were subjected to multiple tests, and where this is the case, the MIC presented is the median value obtained. The MIC values are quoted in μg/mL.

K. pneumoniae CA64 = format: cell-based
Description: as §1

P. aeruginosa CCUG 59347 = format: cell-based
Description: as §1

K. pneumoniae ATCC 13822 = format: cell-based; settings: ATCC 13822
Description: (§2) The inoculum was prepared by making a direct suspension of isolated colonies (selected from an 18-24 hour Mueller-Hinton agar plate) adjusted to the 0.5 McFarland standard. […] The assays were performed in duplicate. […] The MIC values are quoted in μg/mL.

P. aeruginosa ATCC 27853 = format: cell-based
Description: as §2

A. baumannii NCTC 13424 = format: cell-based
Description: as §2

[2] = cation-adjusted Mueller-Hinton Broth, 18-20 h, 35° C.

tissue level at time at 4 h ([1]; sc, 17.2 mg/kg) [ng/g] | MIC E. coli CA58 (E. coli CA58; CA58) [µg/mL] | MIC K. pneumoniae CA64 (K. pneumoniae CA64; CA64) [µg/mL] | MIC P. aeruginosa CCUG 59347 (P. aeruginosa CCUG 59347; CCUG 59347) [µg/mL] | MIC K. pneumoniae ATCC 13822 (K. pneumoniae ATCC 13822) [µg/mL] | MIC P. aeruginosa ATCC 27853 (P. aeruginosa ATCC 27853; ATCC 27853) [µg/mL] | SMILES | HK-2 rel to PMB (HK-2 cells) | also measured
209000 | 16 (≈ 14.2 µM) | 32 (≈ 28.5 µM) | 0.5 (≈ 0.445 µM) | 0.25 (≈ 0.222 µM) | 0.25 (≈ 0.222 µM) | Cc1cccc([C@@H](CN)CC(=O)N[C@H](C(=O)N[C@@H](CN)C(=O)N[C@H]2CCNC(=O)[C@H]([C@@H](C)O)NC(=O)[C@H](CCN)NC(=O)[C@H](CCN)NC(=O)[C@H](CC(C)C)NC(=O)[C@@H](Cc3ccccc3)NC(=O)[C@H](CCN)NC2=O)[C@@H](C)O)c1 [Example 21, (S)-4-amino-3-(m- tolyl)butanoyl-Thr- Dap-Cyclo[Dab-Dab- DPhe-Leu-Dab-Dab- Thr]] (X10-T[Dap][Dab][Dab][dF]L[Dab][Dab]T; lactam 3-C) | 26.7 | 
 |  |  |  |  |  | CC(C)C[C@@H]1NC(=O)[C@@H](CC(C)C)NC(=O)[C@H](CCN)NC(=O)[C@@H](NC(=O)[C@H](CN)NC(=O)[C@@H](NC(=O)C[C@@H](CN)Cc2ccccc2)[C@@H](C)O)CCNC(=O)[C@H]([C@@H](C)O)NC(=O)[C@H](CCN)NC(=O)[C@H](CCN)NC1=O [Example 8, (S)-4-amino-3- benzylbutanoyl-Thr- Dap-Cyclo[Dab-Dab- DLeu-Leu-Dab-Dab- Thr], Isomer 2] ({GABA(3S-Bn)}-T[Dap][Dab][Dab][dL]L[Dab][Dab]T; lactam 3-C) |  | MIC E. coli CA58 (E. coli CA58; [2]): 16 µg/mL (≈ 14.7 µM); MIC K. pneumoniae CA64 (K. pneumoniae CA64; [2]): 32 µg/mL (≈ 29.3 µM); MIC P. aeruginosa CCUG 59347 (P. aeruginosa CCUG 59347; [2]): 0.5 µg/mL (≈ 0.459 µM); MIC A. baumannii NCTC 13424 (A. baumannii NCTC 13424; [2]): 0.25 µg/mL (≈ 0.229 µM); MIC P. aeruginosa ATCC 27853 (P. aeruginosa ATCC 27853; [2]): 0.06 µg/mL (≈ 0.055 µM)
252000 | 8 (≈ 7.08 µM) | 16 (≈ 14.2 µM) | 0.5 (≈ 0.442 µM) |  | 0.25 (≈ 0.221 µM) | CC[C@@H]1NC(=O)[C@@H](CC(C)C)NC(=O)[C@H](CCN)NC(=O)[C@@H](NC(=O)[C@H](CN)NC(=O)[C@@H](NC(=O)C[C@H](CN)c2cccc(-c3ccsc3)c2)[C@@H](C)O)CCNC(=O)[C@H]([C@@H](C)O)NC(=O)[C@H](CCN)NC(=O)[C@H](CCN)NC1=O [Example 30, (S)-4-amino-3-(3- (thiophen-3-yl)phenyl)butanoyl- Thr-Dap-Cyclo[Dab- Dab-DLeu-Abu-Dab- Dab-Thr]] (X14-T[Dap][Dab][Dab][dL][Abu][Dab][Dab]T; lactam 3-C) | 37.5 | MIC A. baumannii NCTC 13424 (A. baumannii NCTC 13424; NCTC 13424): 0.06 µg/mL (≈ 0.0531 µM)
 | 16 (≈ 14.2 µM) | 4 (≈ 3.54 µM) | 0.25 (≈ 0.221 µM) | 0.25 (≈ 0.221 µM) | 0.25 (≈ 0.221 µM) | CC[C@@H]1NC(=O)[C@@H](CC(C)C)NC(=O)[C@H](CCN)NC(=O)[C@@H](NC(=O)[C@H](CN)NC(=O)[C@@H](NC(=O)C[C@@H](CN)c2cccc(-c3ccsc3)c2)[C@@H](C)O)CCNC(=O)[C@H]([C@@H](C)O)NC(=O)[C@H](CCN)NC(=O)[C@H](CCN)NC1=O [Example 31, (R)-4-amino-3-(3- (thiophen-3-yl)phenyl)butanoyl- Thr-Dap-Cyclo[Dab- Dab-DLeu-Abu-Dab- Dab-Thr]] (X23-T[Dap][Dab][Dab][dL][Abu][Dab][Dab]T; lactam 3-C) |  | 
 |  |  |  |  |  | CC(C)C[C@@H]1NC(=O)[C@@H](Cc2ccccc2)NC(=O)[C@H](CCN)NC(=O)[C@@H](NC(=O)[C@H](CN)NC(=O)[C@@H](NC(=O)[C@H](CCN)c2cccc(Cl)c2)[C@@H](C)O)CCNC(=O)[C@H]([C@@H](C)O)NC(=O)[C@H](CCN)NC(=O)[C@H](CCN)NC1=O [reference compound] (X25-T[Dap][Dab][Dab][dF]L[Dab][Dab]T; lactam 3-C) |  | Cytotoxicity (measured IC50 relative to that recorded for Polymyxin B) (HK-2 cells): 5.1; 4 hr kidney level/rel. cytotoxicity [1]: 115; Drug Level in Kidney (μg/g kidney, 4 h) ([1]; sc, 17.2 mg/kg): 589 μg/g kidney
